Counter-ions that a name gives are not always drawn.
Target: T1, bovine MTP (Bos taurus, UniProt P55156)
T1 construct: with about 50-200 ng purified MTP in the well of a 96-well plate; from tissue; host or cells: bovine liver
T1 sequence (P55156 12-887): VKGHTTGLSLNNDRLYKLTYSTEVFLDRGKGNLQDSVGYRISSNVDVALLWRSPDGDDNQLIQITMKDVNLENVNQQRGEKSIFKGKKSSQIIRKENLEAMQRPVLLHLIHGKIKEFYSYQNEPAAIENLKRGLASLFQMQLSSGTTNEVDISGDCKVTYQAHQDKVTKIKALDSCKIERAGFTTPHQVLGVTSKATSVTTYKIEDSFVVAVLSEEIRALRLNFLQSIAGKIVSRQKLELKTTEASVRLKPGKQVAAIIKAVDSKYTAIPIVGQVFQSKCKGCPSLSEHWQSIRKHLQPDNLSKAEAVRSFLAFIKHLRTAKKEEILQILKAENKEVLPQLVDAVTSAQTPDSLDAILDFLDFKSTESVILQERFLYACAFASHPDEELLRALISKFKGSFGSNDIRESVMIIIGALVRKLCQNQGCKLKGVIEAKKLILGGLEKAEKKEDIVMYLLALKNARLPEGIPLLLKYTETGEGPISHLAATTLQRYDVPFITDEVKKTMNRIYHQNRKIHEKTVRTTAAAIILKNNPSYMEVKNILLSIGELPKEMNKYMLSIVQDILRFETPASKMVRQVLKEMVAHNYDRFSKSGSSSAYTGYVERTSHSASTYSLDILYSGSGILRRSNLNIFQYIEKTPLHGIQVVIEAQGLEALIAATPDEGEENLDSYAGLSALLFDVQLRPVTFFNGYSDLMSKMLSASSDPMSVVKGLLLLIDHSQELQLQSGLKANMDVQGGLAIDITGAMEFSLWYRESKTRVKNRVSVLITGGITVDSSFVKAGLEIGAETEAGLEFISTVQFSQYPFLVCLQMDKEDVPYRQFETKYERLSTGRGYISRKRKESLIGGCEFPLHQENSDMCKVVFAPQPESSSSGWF
T1 sequence (P05307 21-510 partner): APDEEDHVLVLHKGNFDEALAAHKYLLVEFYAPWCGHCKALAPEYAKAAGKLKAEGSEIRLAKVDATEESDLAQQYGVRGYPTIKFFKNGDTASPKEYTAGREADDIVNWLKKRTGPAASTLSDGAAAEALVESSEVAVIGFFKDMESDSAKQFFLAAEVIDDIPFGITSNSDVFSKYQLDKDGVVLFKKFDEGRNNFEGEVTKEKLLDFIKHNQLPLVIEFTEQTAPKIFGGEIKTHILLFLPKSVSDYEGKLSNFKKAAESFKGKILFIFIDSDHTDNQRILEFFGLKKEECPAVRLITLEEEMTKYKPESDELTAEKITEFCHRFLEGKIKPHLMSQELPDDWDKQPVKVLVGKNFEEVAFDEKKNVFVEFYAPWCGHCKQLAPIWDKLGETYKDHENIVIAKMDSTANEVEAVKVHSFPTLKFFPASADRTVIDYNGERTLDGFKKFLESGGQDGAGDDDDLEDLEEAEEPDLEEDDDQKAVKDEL
Test: MTP-catalyzed transport of radiolabeled TG from donor SUV to acceptor SUV
Format: biochemical
Conditions: for IC50: 30 minutes at 37° C., read-out: IC50 for inhibition of MTP-catalyzed TG transport from donor SUV to acceptor SUV
Method: (§1) Compound A was dissolved in DMSO and then diluted into 15/40 buffer. Aliquots were added to a lipid transfer assay to bring the compound to the indicated final concentrations. DMSO concentration in the assay never exceeded 2 μL/600 μL, a concentration that was independently determined to have minimal effect on the assay. MTP-catalyzed lipid transport was measured for 30 minutes at 37° C. TG transfer was calculated and compared to a control assay without inhibitor.
as §1, with “Compound B” for “Compound A”
TG transfer activity was measured as the protein-stimulated rate of TG transfer from donor SUV to acceptor SUV. To prepare donor and acceptor vesicles, the appropriate lipids in chloroform were mixed in a 16×125 mm borosilicate glass screw cap tube (Fisher Scientific Co., Pittsburg, Pa., Cat. no. 14-933-1A) and then dried under a stream of nitrogen. Two mL 15/40 buffer (15 mM Tris, pH 7.4, 40 mM sodium chloride, 1 mM EDTA, and 0.02% NaN3) were added to the dried lipids (or 100 μL per assay, which ever is the least volume), a stream of nitrogen was blown over the buffer, then the cap was quickly screwed on to trap a nitrogen atmosphere over the lipid suspension. […]
The ^14C-TG and ^3H-PC remaining in the supernatant were quantitated by scintillation counting. TG transfer was calculated by comparing the ratio of ^14C-TG (transferred from the donor membranes to the acceptor membranes) to ^3H-PC (a marker of acceptor vesicle recovery) present in the supernatant following a transfer reaction to the ratio of total donor ^14C-TG to acceptor [^3H]PC in the assay before the transfer reaction. The percentage of ^14C-TG transfer was calculated as follows: [formula] […]

Row | IC50 | decrease of TG transfer (at concentrations that inhibited approximately 40% of PC transfer) | Structure (SMILES)
1 | ~1000 nM | more than 80% | O=C1c2ccccc2CN1C1CCN(CCC(c2ccccc2)c2ccccc2)CC1 [compound A, 2-[1-(3,3-diphenylpropyl)-4-piperdinyl]-2,3-dihydro-3-oxo-1H-isoindole hydrochloride]
2 | 4000 to 6000 nM | – | COc1ccccc1N1CCN(CC2CC(=O)c3ccc(F)cc3C2)CC1 (stereo not drawn) [compound B, 1-[3-(6-fluoro-1-tetralanyl)methyl]-4-O-methoxyphenyl piperazine]

From patent publication US6492365B1, “Microsomal triglyceride transfer protein” (Bristol-Myers Squibb Company, priority 1992, dated 2002)
